Source: patent US20090111795A1, “Multimers of Heterocyclic Compounds and Their Use” (priority 2005, published 2009)

melting point: 138 to 143 °C
SMILES: CCOC(=O)C1=C(C)N(c2cccc(C(F)(F)F)c2)C(=O)N(CC(=O)NCC[N+](C)(C)CCNC(=O)CN2C(=O)N(c3cccc(C(F)(F)F)c3)C(C)=C(C(=O)OCC)[C@H]2c2ccc(C#N)cc2)[C@@H]1c1ccc(C#N)cc1.O=C([O-])CCC(=O)O
